Patent US9241928B2, “Antimicrobial compounds” (The General Hospital Corporation, priority 2009, dated 2016)
Values after ≈ are worked out from the molar mass of the structure shown.

Tests used:
[1] = tested on: E. faecalis MMH594; assay: MIC assay, E. faecalis in vitro; assay type: cell-based; conditions: Enterococcus faecalis; E. faecalis MMH594 in 20% BHI, 80% M9, 37° C., 15 hours, scored by eye
Protocol: A culture of E. faecalis MMH594 was grown overnight in BHI broth to stationary phase at 37° C. with aeration. The culture was diluted to an approximate density of […] in worm infection media (20% BHI, 80% M9 buffer). 12.5 μl of the bacterial culture dilution was inoculated into 384-well plates containing 12.5 μl of 2-fold serial dilutions of a test compound. […] Plates were incubated at 37° C. for 15 hours and scored by eye for bacterial growth.

[2] = tested on: F35E12.5::GFP; assay: Immune GFP reporter induction, transgene acIs101; assay type: in vivo, Caenorhabditis elegans; conditions: compound-exposed versus DMSO-exposed animals, visual
Source text: (§1) Caenorhabditis elegans strains were maintained on Escherichia coli OP50 as described in Brenner, Genetics, 1974, 77:71-94. Wildtype N2 nematodes carrying integrated transgenes acIs219 (AU78), acIs101(AY101), agIs17(AU133), or agIs26 (AU185) (see (1) Shivers, et al., PLoS. Genet. 2010, 6: e1000892, (2) Bolz et al., J. Biol. Chem. 2010, 285:10832-40, (3) Estes et al., Proc. Natl. Acad. Sci., 2010, 107:2153-8, and (4) Irazoqui et al., Proc. Natl. Acad. Sci., 2008, 105:17469-74) were used to assay the immunomodulatory activity of candidate compounds. […] Fold change was calculated using the Pfaffl method (see Pfaffl et al., Nucleic Acids Res., 2001, 29:e45).
Without wishing to be bound by theory, it was hypothesized that a subset of these compounds cured nematode infection by directly activating the innate immune response of the animal. […] First, the inventors studied four C. elegans strains in which the promoter of the nematode immune response genes T24B8.5, F35E12.5, irg-1 and clec-60 were individually fused to GFP, generating transgenes acIs219 (AU78), acIs101(AY101), agIs17(AU133), or agIs26 (AU185), respectively, thereby allowing a visual readout of gene activity in each strain. […]

[3] = tested on: T24B8.5::GFP; assay: Immune GFP reporter induction, transgene acIs219; assay type: in vivo, Caenorhabditis elegans; conditions: compound-exposed versus DMSO-exposed animals, visual
Source text: as §1, with “compounds. For qRT-PCR experiments, RNA was extracted from synchronized young adult nematodes exposed to a candidate compound or DMSO (as a control) using TRI Reagent and reverse transcribed using the Retroscript kit (Ambion). This cDNA was then subjected to qRT-PCR analysis using SYBR green detection on a CFX1000 machine (Bio-Rad, http://www.bio-rad.com). Primers for qRT-PCR were obtained from published sequences (see Irazoqui et al., Proc. Natl. Acad. Sci., 2008, 105:17469-74 and Troemel et al., PLoS Genet. 2006, 2:e183).” for “compounds.”
Without wishing to be bound by theory, it was hypothesized that a subset of these compounds cured nematode infection by directly activating the innate immune response of the animal. To test this hypothesis, a multi-faceted approach was used. First, the inventors studied four C. elegans strains in which the promoter of the nematode immune response genes T24B8.5, F35E12.5, irg-1 and clec-60 were individually fused to GFP, generating transgenes acIs219 (AU78), acIs101(AY101), agIs17(AU133), or agIs26 (AU185), respectively, thereby allowing a visual readout of gene activity in each strain. Using these reporter strains, the ability of 33 compounds previously shown to have anti-Enterococcal killing activity in the C. elegans infection assay (24 of which have been described above) were tested for their ability to modulate the nematode immune response.

[4] = tested on: C17H12.8; assay: qRT-PCR of immune response gene expression; assay type: in vivo, Caenorhabditis elegans; conditions: 20 μg/mL versus DMSO
Source text: as §1, with “compounds. For qRT-PCR experiments, RNA was extracted from synchronized young adult nematodes exposed to a candidate compound or DMSO (as a control) using TRI Reagent and reverse transcribed using the Retroscript kit (Ambion). This cDNA was then subjected to qRT-PCR analysis using SYBR green detection on a CFX1000 machine (Bio-Rad, http://www.bio-rad.com). Primers for qRT-PCR were obtained from published sequences (see Irazoqui et al., Proc. Natl. Acad. Sci., 2008, 105:17469-74 and Troemel et al., PLoS Genet. 2006, 2:e183).” for “compounds.”
(§2) By using the assay described above, the inventors identified five compounds (i.e., Compounds 11, 18, 20, 25, and 26) that robustly and reproducibly activated the immune GFP reporters (see FIG. 5 and Table 3) or activated selected immune response genes as determined by quantitative RT-PCR analysis (see Table 4). For the latter experiments, RNA was isolated from wild-type C. elegans N2 or pmk-1 mutant animals exposed to the candidate immunomodulatory compounds at 20 μg/mL and from animals exposed to DMSO. The inventors tested several immune response genes in compound-exposed animals that are known to be regulated by PMK-1, the p38 Mitogen Acitvated Protein kinase homolog, an evolutionary-conserved, central regulator of nematode immunity. The inventors also used qRT-PCR to measure the activation of several immune response genes that are known to be activated independently of PMK-1. […] Thus, without wishing to be bound by theory, it is believed that a subset of the compounds identified in the screen for novel anti-infective compounds directly stimulate the immune response of the nematode and that these compounds act both by directly stimulating the PMK-1 pathway and by unidentified parallel immune response pathways.

[5] = tested on: C49G7.5; assay: qRT-PCR of immune response gene expression; assay type: in vivo, Caenorhabditis elegans; conditions: 20 μg/mL versus DMSO
Source text: as §1, with “compounds. For qRT-PCR experiments, RNA was extracted from synchronized young adult nematodes exposed to a candidate compound or DMSO (as a control) using TRI Reagent and reverse transcribed using the Retroscript kit (Ambion). This cDNA was then subjected to qRT-PCR analysis using SYBR green detection on a CFX1000 machine (Bio-Rad, http://www.bio-rad.com). Primers for qRT-PCR were obtained from published sequences (see Irazoqui et al., Proc. Natl. Acad. Sci., 2008, 105:17469-74 and Troemel et al., PLoS Genet. 2006, 2:e183).” for “compounds.”
as §2

[6] = tested on: F35E12.5; assay: qRT-PCR of immune response gene expression; assay type: in vivo, Caenorhabditis elegans; conditions: 20 μg/mL versus DMSO
Source text: as §1, with “compounds. For qRT-PCR experiments, RNA was extracted from synchronized young adult nematodes exposed to a candidate compound or DMSO (as a control) using TRI Reagent and reverse transcribed using the Retroscript kit (Ambion). This cDNA was then subjected to qRT-PCR analysis using SYBR green detection on a CFX1000 machine (Bio-Rad, http://www.bio-rad.com). Primers for qRT-PCR were obtained from published sequences (see Irazoqui et al., Proc. Natl. Acad. Sci., 2008, 105:17469-74 and Troemel et al., PLoS Genet. 2006, 2:e183).” for “compounds.”
as §2

[7] = tested on: F53E10.4; assay: qRT-PCR of immune response gene expression; assay type: in vivo, Caenorhabditis elegans; conditions: 20 μg/mL versus DMSO
Source text: as §1, with “compounds. For qRT-PCR experiments, RNA was extracted from synchronized young adult nematodes exposed to a candidate compound or DMSO (as a control) using TRI Reagent and reverse transcribed using the Retroscript kit (Ambion). This cDNA was then subjected to qRT-PCR analysis using SYBR green detection on a CFX1000 machine (Bio-Rad, http://www.bio-rad.com). Primers for qRT-PCR were obtained from published sequences (see Irazoqui et al., Proc. Natl. Acad. Sci., 2008, 105:17469-74 and Troemel et al., PLoS Genet. 2006, 2:e183).” for “compounds.”
as §2

[8] = tested on: F56D6.2; assay: qRT-PCR of immune response gene expression; assay type: in vivo, Caenorhabditis elegans; conditions: 20 μg/mL versus DMSO
Source text: as §1, with “compounds. For qRT-PCR experiments, RNA was extracted from synchronized young adult nematodes exposed to a candidate compound or DMSO (as a control) using TRI Reagent and reverse transcribed using the Retroscript kit (Ambion). This cDNA was then subjected to qRT-PCR analysis using SYBR green detection on a CFX1000 machine (Bio-Rad, http://www.bio-rad.com). Primers for qRT-PCR were obtained from published sequences (see Irazoqui et al., Proc. Natl. Acad. Sci., 2008, 105:17469-74 and Troemel et al., PLoS Genet. 2006, 2:e183).” for “compounds.”
as §2

[9] = tested on: T24B8.5; assay: qRT-PCR of immune response gene expression; assay type: in vivo, Caenorhabditis elegans; conditions: 20 μg/mL versus DMSO
Source text: as §1, with “compounds. For qRT-PCR experiments, RNA was extracted from synchronized young adult nematodes exposed to a candidate compound or DMSO (as a control) using TRI Reagent and reverse transcribed using the Retroscript kit (Ambion). This cDNA was then subjected to qRT-PCR analysis using SYBR green detection on a CFX1000 machine (Bio-Rad, http://www.bio-rad.com). Primers for qRT-PCR were obtained from published sequences (see Irazoqui et al., Proc. Natl. Acad. Sci., 2008, 105:17469-74 and Troemel et al., PLoS Genet. 2006, 2:e183).” for “compounds.”
as §2

[10] = tested on: irg-1; assay: qRT-PCR of immune response gene expression; assay type: in vivo, Caenorhabditis elegans; conditions: 20 μg/mL versus DMSO
Source text: as §1, with “compounds. For qRT-PCR experiments, RNA was extracted from synchronized young adult nematodes exposed to a candidate compound or DMSO (as a control) using TRI Reagent and reverse transcribed using the Retroscript kit (Ambion). This cDNA was then subjected to qRT-PCR analysis using SYBR green detection on a CFX1000 machine (Bio-Rad, http://www.bio-rad.com). Primers for qRT-PCR were obtained from published sequences (see Irazoqui et al., Proc. Natl. Acad. Sci., 2008, 105:17469-74 and Troemel et al., PLoS Genet. 2006, 2:e183).” for “compounds.”
as §2

[11] = tested on: immune response genes; assay: qRT-PCR of immune response genes, PMK-1 dependence (overall); assay type: in vivo, Caenorhabditis elegans; conditions: 20 μg/mL, N2 or pmk-1 mutant animals
Source text: as §1, with “compounds. For qRT-PCR experiments, RNA was extracted from synchronized young adult nematodes exposed to a candidate compound or DMSO (as a control) using TRI Reagent and reverse transcribed using the Retroscript kit (Ambion). This cDNA was then subjected to qRT-PCR analysis using SYBR green detection on a CFX1000 machine (Bio-Rad, http://www.bio-rad.com). Primers for qRT-PCR were obtained from published sequences (see Irazoqui et al., Proc. Natl. Acad. Sci., 2008, 105:17469-74 and Troemel et al., PLoS Genet. 2006, 2:e183).” for “compounds.”
By using the assay described above, the inventors identified five compounds (i.e., Compounds 11, 18, 20, 25, and 26) that robustly and reproducibly activated the immune GFP reporters (see FIG. 5 and Table 3) or activated selected immune response genes as determined by quantitative RT-PCR analysis (see Table 4). For the latter experiments, RNA was isolated from wild-type C. elegans N2 or pmk-1 mutant animals exposed to the candidate immunomodulatory compounds at 20 μg/mL and from animals exposed to DMSO. The inventors tested several immune response genes in compound-exposed animals that are known to be regulated by PMK-1, the p38 Mitogen Acitvated Protein kinase homolog, an evolutionary-conserved, central regulator of nematode immunity. The inventors also used qRT-PCR to measure the activation of several immune response genes that are known to be activated independently of PMK-1. […]

[12] = tested on: PA14; assay: Growth of PA14 in presence of compound (data not shown); assay type: cell-based, Pseudomonas aeruginosa; conditions: 3.125 μg/mL

SMILES | MIC [1] | immune reporter induction F35E12.5::GFP [2] | immune reporter induction T24B8.5::GFP [3] | C17H12.8 expression, average fold-change ([4]; genotype N2) | C17H12.8 expression, average fold-change ([4]; genotype pmk-1(km25)) | C49G7.5 expression, average fold-change ([5]; genotype N2) | C49G7.5 expression, average fold-change ([5]; genotype pmk-1(km25)) | F35E12.5 expression, average fold-change ([6]; genotype N2) | F35E12.5 expression, average fold-change ([6]; genotype pmk-1(km25)) | F53E10.4 expression, average fold-change ([7]; genotype N2) | F53E10.4 expression, average fold-change ([7]; genotype pmk-1(km25)) | F56D6.2 expression, average fold-change ([8]; genotype N2) | F56D6.2 expression, average fold-change ([8]; genotype pmk-1(km25)) | T24B8.5 expression, average fold-change ([9]; genotype N2) | T24B8.5 expression, average fold-change ([9]; genotype pmk-1(km25)) | irg-1 expression, average fold-change ([10]; genotype N2) | irg-1 expression, average fold-change ([10]; genotype pmk-1(km25)) | PMK-1 dependence of immune response gene activation [11] | effect on PA14 (growth) [12]
NNc1ccc2c(Cl)cc(Cl)c(O)c2n1 [Compound 11] | 6.25 µg/mL (≈ 25.6 µM) | + | + | 18.0 fold-change | 1.1 fold-change | 0.9 fold-change | 2.5 fold-change | 20.23 fold-change | 6.7 fold-change | 1.0 fold-change | 1.7 fold-change | 15.1 fold-change | 1.4 fold-change | 57.0 fold-change | 3.2 fold-change | 1.7 fold-change | 4.7 fold-change | preferentially activated PMK-1-dependent immune response genes | unaffected
Cc1ccc(Nc2nc(N)c3ccccc3n2)cc1Cl [Compound 26] | – | + | + | 1.1 fold-change | 0.4 fold-change | 1.8 fold-change | 6.3 fold-change | 156.1 fold-change | 149.0 fold-change | 0.3 fold-change | 0.8 fold-change | 13.1 fold-change | 0.6 fold-change | 1.6 fold-change | 1.8 fold-change | 1.1 fold-change | 4.0 fold-change | activated at least one immune response gene in the nematode in a manner independent of PMK-1 | –
